The source of these data is patent publication US8987486B2, “Trans-2-decenoic acid derivative and pharmaceutical agent containing the same” (Nagoya Industrial Science Research Institute, priority 2010, dated 2015).

One experiment has as its system MAP kinase. Kind of experiment: Activation (phosphorylation) of MAP kinase by Western immunoblotting in cultured cerebral cortex nerve cells. As to conditions: for Ratio of pMAPK to MAPK: Test Example 6, relative to control (0 μg/mL = 1.0). In kind it is cell-based, rat. How it is done:
With regard to the compound 1 ((E)-2-(dimethylamino)-ethyl dec-2-enoate), activation of MAP kinase was measured as follows by a Western immunoblotting.
Nerve cells were dispersed from cerebral cortex of a fetal rat of 17 days age and said nerve cells were cultured for one day in a Dulbecco-modified Eagle medium (DMEM) containing 5% fetal bovine serum. The culture medium was exchanged with a serum-free medium (B27 supplement-added Neurobasal; Invitrogen) and the nerve cells were cultured at the density of 20,000 to 40,000 cells per cm^2 in a culture dish coated with polyornithine.
After three days, the compound 1 was added and the culture was continued for 30 minutes. After that, the cells were recovered on ice using a solution containing a phosphatase inhibitor where Tris-HCl buffer was a base. Protein concentration of the resulting cell extract was quantified using a BCA Protein Assay Kit (Takara Bio KK) and a certine amount of protein (3 μg for the measurement of MAP kinase and 5 μg for the measurement of phosphorylated MAP kinase) was subjected to polyacrylamide gel electrophoresis. The protein was transcribed from the gel after the electrophoresis to a PVDF membrane and a Western immunoblotting was carried out using each of an anti-MAP kinase antibody (Cell Signaling Technology) and an anti-phosphorylated MAP kinase antibody (Cell Signaling Technology) of the primary antibody.
After that, the reaction with an alkaline phosphatase-labeled anti-rabbit IgG antibody (Promega) of the secondary antibody was carried out so that the enzymatic activity was colorized whereupon the MAP kinase and the phosphorylated MAP kinase were measured.
Incidentally, the compound 1 was adjusted to the concentrations of 10 μg/ml, 30 μg/ml, 100 μg/ml and 300 μg/ml by dissolving in 0.1% DMSO. With regard to the control, 0.1% DMSO was added.
Intensity of the concentration of the above-obtained band of the gel subjected to electrophoresis was calculated and quantified using Image J (K. K. Bioarts). The numerical value for the MAP kinase using the compound 1 was divided by the numerical value for the MAP kinase of the control and, further, the numerical value for the phosphorylated MAP kinase using the compound 1 was divided by the numerical value for the phosphorylated MAP kinase of the control whereupon the ratio of the MAP kinase using the compound 1 to the control and the ratio of the phosphorylated kinase using the compound 1 to the control were determined.
After that, the resulting ratio of the phosphorylated MAP kinase to the control was divided by the resulting ratio of the MAP kinase to the control to determine the ratio of the phosphorylated MAP kinase to the MAP kinase (cf. Table 5). In Table 5, “MAPK” means a MAP kinase and “pMAPK” means a phosphorylated MAP kinase. “10”, “30”, “100” and “300” in Table 5 show the examples where 10 μg/ml, 30 μg/ml, 100 μg/ml and 300 μg/ml of the compound 1 were added.
MAP kinase and phosphorylated MAP kinase were measured for the compound 6 ((E)-2-(diethylamino)ethyl dec-2-enoate) and the compound 13 ((E)-2-(2-(diethylamino)ethoxy)ethyl dec-2-enoate) by the same method as in Test Example 1.
Each of the compounds 6 and 13 was dissolved in 0.1% DMSO to adjust to the concentration of 250 μg/ml. With regard to the control, 0.1% DMSO was added. With regard to the concentration of the resulting band of the gel subjected to electrophoresis, its intensity was calculated by the same method as in Test Example 1 using Image J (K. K. Bioarts) and the ratio of the phosphorylated MAP kinase to the control was divided by the resulting ratio of the MAP kinase to the control whereupon the ratio of the phosphorylated MAP kinase to the MAP kinase was determined (cf. Table 6).
With regard to the compound of the present invention, its activation for MAP kinase was measured by the same manner as in Test Example 1.
Each compound was dissolved in 0.1% DMSO to adjust to the concentrations of 30 μg/ml, 60 μg/ml, 125 μg/ml and 250 μg/ml. […]
(In general: A western blot detects proteins with antibodies after separation by electrophoresis.)

A further experiment relates to PC12 cells. Kind of experiment: Evaluation using PC12 cells; immunostaining method for MAPK phosphorylation. In kind it is cell-based. The following applies: 30 minutes. How it is done: PC12 cells were stimulated using the compound of the present invention and the phosphorylation of MAPK was evaluated by means of immunostaining of the cells. The specific operation procedure is as follows.
A cover glass was placed on a 24-well plate followed by coating with poly-L-lysine. PC12 cells were seeded in a cell density of 50,000 cells/well. (The amount of the medium was 400 μL) On the first day after seeding the cells, the medium was exchanged to DMEM containing 1% fetal bovine serum (FBS) and 0.06% L-glutamine.
The compound which was previously diluted with DMSO was dissolved in 100 μl of medium. After 12 to 16 hours from the medium exchange, 100 μl out of 400 μl of the medium was removed from each well and, in place of that, 100 μl of a medium containing the compound was added.
After 30 minutes from the addition, fixation was conducted using 4% paraformaldehyde (PFA) for 10 minutes. The fixed cells were washed with a Tris-buffered saline (TBS) and a TBS containing 0.3% Triton X was added thereto followed by incubating at 37° C. for 30 minutes. This was washed with a TBS and blocked with a TBS containing 3% skim milk for 30 minutes (at room temperature).
This was washed with a TBS for one time and a primary antibody (anti-phospho-p42/44 MAPK antibody; cell signalings; #9102 being diluted with TBS to an extent of 1,000-fold) was added thereto followed by subjecting to the reaction at 4° C. for one night. The primary antibody was removed and washed with a TBS for three times. After that, the secondary antibody (Alexa 488 goat anti-rabbit antibody; Invitrogen: being diluted to an extent of 1,000-fold using a TBS containing 1% Block Ace) was added thereto and the reaction was conducted at room temperature for 3 hours. The secondary antibody was removed and, after washing with a TBS, fixation was conducted with 4% PFA for 1 hour.
This was washed with a TBS, Hoechst (diluted with a TBS to an extent of 2000-fold) was added thereto and nuclear staining was conducted. This was washed and mounted.
Taking the photographic pictures and counting the positive cells were conducted as follows. An all-in-one microscope (manufactured by Keyence) was used, exposing time for pMAPK (green) was made 1/2.8 s, the place was appropriately decided in a Hoechst-stained image and the pictures were taken. Four pictures per one glass sheet were taken.
Photoshop (Adobe) was used and the cells having above a certain luminance were judged to be positive. All cells were labeled using Hoechst 33342 manufactured by Invitrogen and the rate of pMAPK-positive cells in Hoechst-positive cells was calculated. (cf. Table 7)

The subject of experiment [1] is paclitaxel-induced peripheral nerve disorder rats. Kind of experiment: von Frey test in paclitaxel-induced peripheral nerve disorder rats. It counts as in vivo. The following applies: Rattus norvegicus, ip; single intraperitoneal dose of 300 μ/kg; higher of the thresholds after 1 hour and 5 hours; normal threshold 15; read-out: Recovery rate of 50% reaction threshold value (%). How it is done:
The effect of the compound of the present invention was tested for a peripheral nerve disorder which is a side effect induced by the administration of paclitaxel (an anti-cancer agent) such as hyperesthesia including allodynia (severe pain induced by such tactile stimuli which usually cause no pain). The compound of the present invention was intraperitoneally administered to rats as a test drug to conduct a von Frey test.
Male SD rats of six weeks age (one group comprising six rats) were used as experimental animals and paclitaxel (2 mg/kg) was intraperitoneally administered every other day for four times in total to prepare paclitaxel-induced peripheral nerve disorder rats. During 18 and 25 days or during 20 to 27 days after initiation of paclitaxel administration, the test drug was intraperitoneally administered in a single dose of […] and the following von Frey test was conducted.
The rats of the above (1) were placed in a transparent acrylic cage with a wire-meshed floor and habituated for about three minutes and the 50% reaction threshold values to the mechanical stimulus of right hind limb were measured before administration of the test drug and after 1, 5 and 24 hours from initiation of the administration.
The measurement was conducted using von Frey filaments (manufactured by North Coast Medical Inc.) in accordance with the methods of Chaplan, et al. (Journal of Neuroscience Methods, vol. 53, no. 1, pages 55 to 63, 1994) and Dixon, et al. (Annual Review of Pharmacology and Toxicology, vol. 20, pages 441 to 462, 1980). […] The case where the rat escaped at the instance of removing the filament was also called positive. When the positive reaction was noted, stimulus was conducted similarly using a filament of one rank weaker while, when no reaction was noted, stimulus was conducted similarly using a filament of one rank stronger and the point when the reaction changed from negative to positive or from positive to negative was called the first two reactions. After that, stimulus was conducted for continuous four times by the same up-down method. A 50% reaction threshold value to the mechanical stimulus was measured using the reaction to the six stimuli in total and then (mean value)±(standard error) for each group was calculated. Incidentally, when stimulus reached by that of 15.0 g without positive reaction or, when positive reaction continued to 0.4 g, then 15.0 g or 0.25 g was adopted as each threshold value, respectively. With regard to the higher 50% reaction threshold value between the 50% threshold values after 1 hour and 5 hours from administration of a test drug, a recovery rate (%) of the 50% reaction threshold value was calculated by the following expression in which 15 was adopted as the normal threshold value. Recovery rate (%) of 50% reaction threshold value=[(50% reaction threshold value after 1 hour or 5 hours from administration of test drug)−(50% reaction threshold value before administration of test drug)]/[(Normal threshold value)−(50% reaction threshold value before administration of test drug)]

Molecules are shown by their SMILES.

As for `CCCCCCC/C=C/C(=O)OCCCCN(C)C` [Compound 4, (E)-4-(dimethylamino)butyl dec-2-enoate], the “Ratio of pMAPK to MAPK” value in the experiment on MAP kinase (30 μg/mL) amounted to 2.2; in the experiment with MAP kinase (60 μg/mL), 3.2; with MAP kinase (125 μg/mL), 20.6. Besides, the “Rate of pMAPK-positive cells (%)” value came out at 12% in the experiment with PC12 cells (62.5 μg/mL), 27% with PC12 cells (125 μg/mL), 64% in the experiment on PC12 cells (250 μg/mL) and 81% with PC12 cells (500 μg/mL).

Take `CCCCCCC/C=C/C(=O)OCCOCCN(CC)CC` [Compound 13, (E)-2-(2-(diethylamino)ethoxy)ethyl dec-2-enoate]: the “Ratio of pMAPK to MAPK” value was 2.6 with MAP kinase (30 μg/mL), 3.1 with MAP kinase (60 μg/mL) and 1.3 in the experiment on MAP kinase (125 μg/mL). Further, the pMAPK/MAPK/Control in the experiment on MAP kinase (250 μg/ml, Test Example 2, control = 1.00) stood at 1.46. The results for the “Rate of pMAPK-positive cells (%)” value with PC12 cells (62.5 μg/mL), in the experiment with PC12 cells (125 μg/mL) and with PC12 cells (250 μg/mL) were 35%, 35% and 52%, respectively.

With `CCCCCCC/C=C/C(=O)SCCN(CC)CC` [Compound 56, (E)-S-2-(diethylamino)ethyl dec-2-enethioate], in experiment [1], the inhibition in vivo at 0.3 mg/kg was determined as 60.5%. Further, the “Ratio of pMAPK to MAPK” value is on record as 5.0 with MAP kinase (60 μg/mL), 7.4 in the experiment on MAP kinase (125 μg/mL) and 5.7 with MAP kinase (250 μg/mL).
